Test results as given in ChEMBL document CHEMBL1201862, “PubChem BioAssay data set” (2004).
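Interpolation was linear, between the two tested concentrations surrounding the appropriate level; five concentrations were tested over 48 hours in 96-well plates. GI50 = concentration required for 50% inhibition of growth.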 The source made the active and inactive calls. Cut-off read from the data, not from the text of the source: active = GI50 up to about 1.1 µM and inactive = higher.

Key:
Assay in all cases: NCI-60 cell line screen, 48 h
[1] = test system: OVCAR-8
[2] = test system: SNB-75
[3] = test system: M14
[4] = test system: HL-60
[5] = test system: ACHN
[6] = test system: RPMI-8226
[7] = test system: RXF 393
[8] = test system: HOP-62
[9] = test system: Malme-3M
[10] = test system: UO-31
[11] = test system: UACC-257
[12] = test system: A549
[13] = test system: HCT-116
[14] = test system: A498
[15] = test system: U-251

Measured: GI50

COc1ccc2nc(NC(=O)C(=O)C(C#N)c3ccc(Cl)c(Cl)c3)sc2c1 (stereo not given)
inactive: [1] > 100 µM | [2] 45.3 µM | [3] > 100 µM | [4] > 100 µM | [5] > 100 µM | [6] > 100 µM | [7] 52.2 µM | [8] > 100 µM | [9] > 100 µM | [10] > 100 µM | [11] > 100 µM | [12] > 100 µM | [13] 62.4 µM | [14] > 100 µM | [15] > 100 µM

COC(=O)/C=C/C1C(C(=O)OC)C2(C(=O)OC)CCC1(C(=O)OC)N2 (stereo not given)
inactive: [1] > 100 µM | [2] > 100 µM | [3] > 100 µM | [4] > 100 µM | [5] > 100 µM | [6] > 100 µM | [7] > 100 µM | [8] > 100 µM | [9] > 100 µM | [10] > 100 µM | [11] > 100 µM | [12] > 100 µM | [13] > 100 µM | [14] > 100 µM | [15] > 100 µM

O=C(c1ccc(O)cc1)C1c2c3c(cc(O)c2C(c2ccc(O)cc2)C1c1cc(O)cc(O)c1)OC(c1ccc(O)cc1)C3c1cc2c(cc1O)OC(c1ccc(O)cc1)C2c1cc(O)cc(O)c1 (stereo not given)
inactive: [1] > 12.5 µM | [2] > 12.5 µM | [3] > 12.5 µM | [4] > 12.5 µM | [5] > 12.5 µM | [6] > 12.5 µM | [8] > 12.5 µM | [9] > 12.5 µM | [10] > 12.5 µM | [11] > 12.5 µM | [12] > 12.5 µM | [13] > 12.5 µM | [14] > 12.5 µM | [15] > 12.5 µM

CSc1nnc(CCC(=O)Nc2c(C)cccc2C)o1
inactive: [1] > 100 µM | [2] 91.6 µM | [3] > 100 µM | [4] > 100 µM | [6] > 100 µM | [7] > 100 µM | [8] > 100 µM | [9] > 100 µM | [10] > 100 µM | [11] > 100 µM | [12] > 100 µM | [13] > 100 µM | [14] > 100 µM | [15] > 100 µM

COC(=O)[C@@H]1Cc2c([nH]c3ccccc23)[C@H](c2ccccc2)N1
inactive: [1] 41.3 µM | [2] 19.5 µM | [3] 25.6 µM | [4] 29.9 µM | [5] 38.3 µM | [9] 94 µM | [10] 29.6 µM | [11] 41.8 µM | [12] 38.6 µM | [13] 29.4 µM | [14] 20.9 µM | [15] 47.8 µM

CC(c1cccc2ccccc12)/[N+]([O-])=C/c1ccccc1 (stereo not given)
inactive: [1] > 100 µM | [2] 75 µM | [4] 99.5 µM | [5] > 100 µM | [6] 58.3 µM | [7] > 100 µM | [8] > 100 µM | [9] > 100 µM | [10] 39.6 µM | [11] > 100 µM | [12] > 100 µM | [13] > 100 µM | [14] > 100 µM | [15] > 100 µM

CCCCCCCCNC(=O)SCCCC
inactive: [1] 33.8 µM | [2] 26.1 µM | [3] 33.8 µM | [4] 18.8 µM | [5] 34.6 µM | [6] 22.4 µM | [7] 24.3 µM | [9] 23.1 µM | [10] 26.5 µM | [12] 33.9 µM | [14] 45.5 µM | [15] 36.9 µM

CC(C)C(=O)/C=C/c1ccccc1
inactive: [2] > 100 µM | [3] > 100 µM | [4] 42.3 µM | [5] 81.5 µM | [6] 37.1 µM | [7] > 100 µM | [10] > 100 µM | [11] 94.8 µM | [12] > 100 µM | [13] 67.3 µM | [14] > 100 µM | [15] 61.2 µM

C[C@]12CCc3nn(-c4ccccc4)nc3C1CC[C@@H]1C2CC[C@]2(C)C(=O)CCC12 (stereo not given in full)
inactive: [1] 94.2 µM | [2] > 100 µM | [3] > 100 µM | [4] > 100 µM | [5] > 100 µM | [6] > 100 µM | [7] > 100 µM | [8] > 100 µM | [9] > 100 µM | [10] > 100 µM | [11] > 100 µM | [12] > 100 µM | [13] > 100 µM | [15] > 100 µM

O=c1[nH]c2c3ccccc3ccc2c2cc3c(cc12)OCO3
inactive: [1] > 100 µM | [2] 31.4 µM | [3] > 100 µM | [5] 69.3 µM | [6] 72.8 µM | [7] 28.8 µM | [8] 89.1 µM | [9] > 100 µM | [10] 39.4 µM | [11] > 100 µM | [12] 75.9 µM | [13] 83.2 µM | [15] > 100 µM
